Data taken from US9752168B2, “Compositions comprising a polypeptide having cellulolytic enhancing activity and a quinone compound and uses thereof” (priority 2010, dated 2017).
Like-named read-outs stand apart in the source and are kept apart here.

Columns and labels:
[1] = test system: Trichoderma reesei cellulase composition; settings: milled unwashed PCS; 5 mM quinone; 1, 3, and 7 days (white bars)
[2] = test system: Trichoderma reesei cellulase composition; assay: Hydrolysis of AVICEL® (microcrystalline cellulose) by the T. reesei cellulase composition; settings: for quinone compound effect(no GH61) (ratio, Equation 2): AVICEL®; for Percent conversion of AVICEL®: no quinone compound, cellulase 4 mg protein/g cellulose, GH61 polypeptide where present 0.4 mg/g cellulose (10% w/w of cellulase)
[3] = test system: Trichoderma reesei cellulase composition; settings: milled washed PCS; 10 mM quinone; 1 and 3 days; cellulase 2 mg per g cellulose
[4] = test system: Thielavia terrestris GH61E polypeptide; assay type: biochemical; settings: AVICEL®, T. terrestris GH61E 0.4 or 2 mg per ml
[5] = test system: Penicillium pinophilum GH61A polypeptide; assay type: biochemical; settings: P. pinophilum GH61A 0.4 or 2 mg per ml
[6] = test system: Talaromyces stipitatus GH61 polypeptide; assay type: biochemical; settings: T. stipitatus GH61 0.4 or 2 mg per g cellulose
[7] = biological target: Aspergillus fumigatus GH61B polypeptide (Aspergillus fumigatus, UniProt Q4WP32); assay type: biochemical; settings: A. fumigatus GH61B 0.4 or 2 mg per ml
[8] = test system: T. reesei cellulase composition; assay: Enhancement of microcrystalline cellulose cellulolysis by the T. reesei cellulase composition using combinations of compounds and various GH61 polypeptides; settings: mixtures of compounds at 3 mM
[9] = AVICEL®, 5 mM quinone present, days 3 and 7
[10] = AVICEL®, 5 mM quinone, day 1 and 3

## COC1=C(OC)C(=O)C(C)=CC1=O
[1]
  quinone compound effect(no GH61) (ratio, Equation 2): greater than 1
[2]; 5 mM quinone, day 3 and 7
  quinone compound effect(no GH61) (ratio, Equation 2): less than 1
[2]; 10 mM quinone, 1 and 3 days
  quinone compound effect(no GH61) (ratio, Equation 2): less than 1
[3]
  quinone compound effect(no GH61) (ratio, Equation 2): less than 1

## CC1=CC(=O)C=CC1=O [2-methyl-1,4-benzoquinone]
[4]; 5 mM quinone present, days 3 and 7
  GH61 effect (ratio, Equation 4): greater than 1
[4]; 5 mM quinone, day 7
  quinone compound effect(+GH61) (ratio, Equation 3): less than 1
[2]; 5 mM quinone, 1, 3, and 7 days (white bars)
  quinone compound effect(no GH61) (ratio, Equation 2): less than 1
[5]; 5 mM quinone, day 7
  Day 7 hydrolysis of AVICEL® in the presence of quinone and GH61 polypeptide: not significantly impacted
[5]; [9]
  GH61 effect (ratio, Equation 4): greater than 1
[5]; [10]
  quinone compound effect(+GH61) (ratio, Equation 3): less than 1
[6]; 5 mM quinone, day 7
  Day 7 hydrolysis of AVICEL® in the presence of quinone and GH61 polypeptide: not significantly impacted
[6]; [9]
  GH61 effect (ratio, Equation 4): greater than 1
[6]; [10]
  quinone compound effect(+GH61) (ratio, Equation 3): less than 1
[7]; 5 mM quinone, day 7
  Day 7 hydrolysis of AVICEL® in the presence of quinone and GH61 polypeptide: not significantly impacted
[7]; [9]
  GH61 effect (ratio, Equation 4): greater than 1
[7]; [10]
  quinone compound effect(+GH61) (ratio, Equation 3): less than 1

B1: A. fumigatus GH61B polypeptide: GH61 polypeptide having cellulolytic enhancing activity (SEQ ID NO: 30), recombinantly prepared according to WO 2010/138754 (protein, listed as Aspergillus fumigatus)
chain: MTLSKITSIAGLLASASLVAGHGFVSGIVADGKYYGGYLVNQYPYMSNPPDTIAWSTTATDLGFVDGTGYQSPDIICHRDAKNGKLTATVAAGSQIEFQWTTWPESHHGPLITYLAPCNGDCATVDKTTLKFVKIAAQGLIDGSNPPGVWADDEMIANNNTATVTIPASYAPGNYVLRHEIIALHSAGNLNGAQNYPQCFNIQITGGGSAQGSGTAGTSLYKNTDPGIKFDIYSDLSGGYPIPGPALFNA
[8]
  overall conversion of AVICEL®, comparison among GH61 polypeptides: highest overall conversion
[2]; 1 day
  Percent conversion of AVICEL®: 13.7±0.2%
[2]; 3 days
  Percent conversion of AVICEL®: 29±1%
[2]; 7 days
  Percent conversion of AVICEL®: 46±2%
